pIC50: −log10 of the molar value. Read-outs that look alike come from different tables or passages of the source.

What is called pIC50 is the negative decadic logarithm of the IC50, by convention in mol/L.

The assay has as its target T1, GPR84 (Homo sapiens, UniProt Q9NQS5).
T1 construct: expressed in transfected cells; host or cells: HEK293
In words: GPR84 calcium flow model (antagonism of agonist 6-OAU, Fluo-4 fluorescence). It is filed as cell-based. The method, then:
GPR84 antagonistic activity of the compounds of the invention was determined.
The human GPR84 cell line was obtained by transfecting a HEK293 cell line with a plasmid encoding GPR84 and Gα16 proteins. Fluorescent dye Fluo-4AM was purchased from Invitrogen.
Intracellular Ca^2+ ion is a very important second messenger of G protein-coupled receptor signaling pathway. […] Fluo-4 is a Ca^2+ ion-specific fluorescent probe that binds quantitatively to Ca^2+ ions and emits fluorescence. Therefore, the agonistic or antagonistic activity of the compound can be detected in a 96-well or 384-well flat-bottomed microplate using a fluorescence assay.
Detection of receptor inhibitory effect by GPR84 antagonist: After incubated with fluorescent dye Fluo-4, GPR84 cells were incubated with different concentrations of antagonistic compounds for a period of time to occupy the binding site of agonist to GPR84 (antagonistic binding site). A certain concentration of agonist (6-OAU) was added to compete with the antagonist compound for binding sites. […] The half-inhibitory concentration (IC50) of the compound was calculated by using GraphPad PRISM software.
The above ingredients were weighed and dissolved in ultrapure water. pH was adjusted to 7.4 by using hydrochloric acid or NaOH solution. The mixture was filtered and stored at 4° C. for one month.
The buffer was prepared on site.
The preparation of each milliliter of dye is as follows. 1 μL of 2 mM Fluo-4 AM was mixed with 10 μL of 3% Cremophor EL, then diluted with 1 mL of calcium buffer and mixed.
The cells were seeded at a density of 40,000 cells/well into a 96-well cell culture plate, and cultured for 24 hours or more to a cell density of 80 to 90% for experimental detection. The culture medium in the well to be tested was removed and 40 μL/well of freshly prepared dye was added and incubated in a 37-degree incubator for 40 min to 50 min.
The compound was formulated during cell incubation (this step can also be carried out in advance). The compound used as antagonist was diluted with calcium buffer freshly prepared before the experiment to 1.5 times of the final working concentration. The compound as agonist was diluted to 3 times of the final working concentration (if the compound is dissolved in DMSO, the final work concentration of DMSO shall not exceed 1%).
After the incubation step was completed, the dye was discarded, and the residue was washed with calcium buffer once and then replaced with 50 μL of calcium buffer containing different concentrations of antagonist and incubated for another 10 min.

Where [1] appears, read: HEK293 cell line transfected with GPR84 and Gα16, agonist 6-OAU, Fluo-4, read-out: IC50 of the compound detected by the GPR84 calcium flow model.

T1 sequence (Q9NQS5 whole entry): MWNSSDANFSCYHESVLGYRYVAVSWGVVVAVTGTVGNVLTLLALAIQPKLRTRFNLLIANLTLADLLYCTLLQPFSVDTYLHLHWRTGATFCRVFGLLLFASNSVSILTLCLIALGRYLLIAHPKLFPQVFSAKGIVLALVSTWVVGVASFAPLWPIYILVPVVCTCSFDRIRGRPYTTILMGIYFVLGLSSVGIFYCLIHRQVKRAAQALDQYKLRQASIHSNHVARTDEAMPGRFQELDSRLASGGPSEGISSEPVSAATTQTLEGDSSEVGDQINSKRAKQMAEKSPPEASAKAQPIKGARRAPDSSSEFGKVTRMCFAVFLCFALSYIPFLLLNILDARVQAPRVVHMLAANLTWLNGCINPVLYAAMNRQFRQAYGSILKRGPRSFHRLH

In the case of `O=P(O)(Oc1cc2ccccc2c2ccccc12)Oc1cc2ccccc2c2ccccc12` [CLH472], the pIC50 is 5.00 to 6.00.
`O=P(O)(Oc1c2ccccc2cc2ccccc12)Oc1c2ccccc2cc2ccccc12` [CLH472a]: the pIC50 was 6.00 to 7.00.
In the case of `O=P(O)(OC1=Cc2ccccc2Oc2ccccc21)OC1=Cc2ccccc2Oc2ccccc21` [CLH482], the pIC50 under setting [1] was 6.00 to 7.00.
As for `CN1c2ccccc2C=C(OP(=O)(O)OC2=Cc3ccccc3N(C)c3ccccc32)c2ccccc21` [CLH508], the pIC50 under setting [1] is 6.00 to 7.00.
As to `O=P(O)(OC1=Cc2ccccc2Sc2ccccc21)OC1=Cc2ccccc2Sc2ccccc21` [CLH514], the pIC50 under setting [1] was 7.00 to 10.00.
Turning to `O=P(O)(O/C1=C/c2ccccc2/C=C\c2ccccc21)O/C1=C/c2ccccc2/C=C\c2ccccc21` [CLH524], the pIC50 under setting [1] was 6.00 to 7.00.
Consider `C=C1c2ccccc2C=C(OP(=O)(O)OC2=Cc3ccccc3C(=C)c3ccccc32)c2ccccc21` [CLH524a], for which the pIC50 under setting [1] is 6.00 to 7.00.
Still for that read-out and setting: as for `CC1c2ccccc2C=C(OP(=O)(O)OC2=Cc3ccccc3C(C)c3ccccc32)c2ccccc21` (stereo not drawn) [CLH528a], the figure is 6.00 to 7.00; as for `O=P(O)(OC1=CC2=C(CCCC2)Sc2ccccc21)OC1=CC2=C(CCCC2)Sc2ccccc21` [CLH544], 6.00 to 7.00; as for `O=P(O)(OC1=Cc2ccccc2SC2=C1CCCC2)OC1=Cc2ccccc2SC2=C1CCCC2` [CLH544a], 6.00 to 7.00.
In the case of `O=P(O)(OC1=Cc2ccccc2Sc2sccc21)OC1=Cc2ccccc2Sc2sccc21` [CLH548], the pIC50 under setting [1] is 7.00 to 10.00.
`COc1cccc2c1Cc1ccccc1C=C2OP(=O)(O)OC1=Cc2ccccc2Cc2c(OC)cccc21` [CLH560]: under setting [1], the pIC50 was 7.00 to 10.00.
On to `O=P(O)(OC1=Cc2ccccc2Sc2c(O)cccc21)OC1=Cc2ccccc2Sc2c(O)cccc21` [CLH568], for which the pIC50 under setting [1] was 7.00 to 10.00.
Consider `O=P(O)(OC1=Cc2ccccc2Sc2c(F)cccc21)OC1=Cc2ccccc2Sc2c(F)cccc21` [CLH572a], for which the pIC50 under setting [1] is 6.00 to 7.00.
For `O=P(O)(OC1=Cc2ccccc2Sc2cc(F)ccc21)OC1=Cc2ccccc2Sc2cc(F)ccc21` [CLH572b], under setting [1], the pIC50 was 6.00 to 7.00.
Turning to `O=P(O)(OC1=Cc2ccccc2Sc2ccc(F)cc21)OC1=Cc2ccccc2Sc2ccc(F)cc21` [CLH572c], the pIC50 under setting [1] is 6.00 to 7.00.
`COc1cccc2c1Sc1ccccc1C=C2OP(=O)(O)OC1=Cc2ccccc2Sc2c(O)cccc21` [CLH582]: the pIC50 under setting [1] is 7.00 to 10.00.
Consider `O=P(O)(OC1=Cc2ccccc2[S+]([O-])c2ccccc21)OC1=Cc2ccccc2S(=O)(=O)c2ccccc21` (stereo not drawn) [CLH584], for which, under setting [1], the pIC50 was 5.00 to 6.00.
`COc1ccc2c(c1)Sc1ccccc1C=C2OP(=O)(O)OC1=Cc2ccccc2Sc2cc(OC)ccc21` [CLH596b]: the pIC50 under setting [1] was 7.00 to 10.00.
Regarding `COc1ccc2c(c1)C(OP(=O)(O)OC1=Cc3ccccc3Sc3ccc(OC)cc31)=Cc1ccccc1S2` [CLH596c], the pIC50 under setting [1] was 7.00 to 10.00.
Consider `O=P(O)(OC1=Cc2ccccc2S(=O)(=O)c2ccccc21)OC1=Cc2ccccc2S(=O)(=O)c2ccccc21` [CLH600], for which, under setting [1], the pIC50 was 5.00 to 6.00.
Turning to `O=P(O)(OC1=Cc2ccccc2C2(OCCO2)c2ccccc21)OC1=Cc2ccccc2C2(OCCO2)c2ccccc21` [CLH616a], the pIC50 under setting [1] is 6.00 to 7.00.
In the case of `CCOc1cccc2c1Sc1ccccc1C=C2OP(=O)(O)OC1=Cc2ccccc2Sc2c(OCC)cccc21` [CLH624], the pIC50 under setting [1] was 7.00 to 10.00.
For the molecule `COc1cccc2c1Sc1ccccc1C=C2OP(=O)(O)OC1=Cc2cc(C(C)C(=O)O)ccc2Sc2ccccc21` (stereo not drawn) [CLH638], the pIC50 under setting [1] is 7.00 to 10.00.
Consider `CC(C)Oc1cccc2c1Sc1ccccc1C=C2OP(=O)(O)OC1=Cc2ccccc2Sc2c(OC(C)C)cccc21` [CLH652], for which, under setting [1], the pIC50 was 6.00 to 7.00.
`COc1cc2c(cc1OC)C(OP(=O)(O)OC1=Cc3ccccc3Sc3cc(OC)c(OC)cc31)=Cc1ccccc1S2` [CLH656]: the pIC50 under setting [1] was 7.00 to 10.00.
As to `COc1ccc(OC)c2c1Sc1ccccc1C=C2OP(=O)(O)OC1=Cc2ccccc2Sc2c(OC)ccc(OC)c21` [CLH656a], the pIC50 under setting [1] is 6.00 to 7.00.
On the same count and under the same terms, as for `CCOC(=O)C(C)c1ccc2c(c1)C=C(OP(=O)(O)OC1=Cc3ccccc3Sc3c(OC)cccc31)c1ccccc1S2` (stereo not drawn) [CLH666], the figure is 7.00 to 10.00.
Still for that read-out and setting: as for `CC(C(=O)O)c1ccc2c(c1)C=C(OP(=O)(O)OC1=Cc3cc(C(C)C(=O)O)ccc3Sc3ccccc31)c1ccccc1S2` (stereo not drawn) [CLH680], the figure is 5.00 to 6.00; as for `CCOC(=O)C(C)c1ccc2c(c1)C=C(OP(=O)(O)OC1=Cc3cc(C(C)C(=O)OCC)ccc3Sc3ccccc31)c1ccccc1S2` (stereo not drawn) [CLH736], 5.00 to 6.00; as for `O=P(O)(O/C1=C/c2ccccc2CCc2ccccc21)O/C1=C/c2ccccc2CCc2ccccc21` [XYF528], 6.00 to 7.00.
For `O=P(O)(CC1=Cc2ccccc2Sc2ccccc21)CC1=Cc2ccccc2Sc2ccccc21` [XYF532], the negative-log IC50 (pIC50) under setting [1] was 5.00 to 6.00.
Turning to `O=P(O)(OC1=Cc2c(F)cccc2Cc2ccccc21)OC1=Cc2c(F)cccc2Cc2ccccc21` [XYF536c], under setting [1], the pIC50 is 7.00 to 10.00.
For the molecule `O=P(O)(OC1=Cc2c(F)cccc2Oc2ccccc21)OC1=Cc2c(F)cccc2Oc2ccccc21` [XYF540], the pIC50 under setting [1] is 7.00 to 10.00.
Consider `O=P(O)(OC1=Cc2ccsc2Sc2sccc21)OC1=Cc2ccsc2Sc2sccc21` [XYF560], for which, under setting [1], the pIC50 was 6.00 to 7.00.
Same read-out and setting: as for `COc1cccc2c1Oc1ccccc1C=C2OP(=O)(O)OC1=Cc2ccccc2Oc2c(OC)cccc21` [XYF564-2a], the figure is 7.00 to 10.00.
Same read-out and setting: the same measure for `Cc1ccc2c(c1)C(OP(=O)(O)OC1=Cc3ccccc3Sc3ccc(C)cc31)=Cc1ccccc1S2` [XYF564c]: 7.00 to 10.00.
For `O=P(O)(OC1=Cc2ccc(F)cc2Sc2ccccc21)OC1=Cc2ccc(F)cc2Sc2ccccc21` [XYF573], the pIC50 under setting [1] was 6.00 to 7.00.
On to `O=P(O)(OC1=Cc2cccc(F)c2Sc2ccccc21)OC1=Cc2cccc(F)c2Sc2ccccc21` [XYF573a], for which, under setting [1], the pIC50 was 6.00 to 7.00.
With `O=P(O)(OC1=Cc2cc(F)ccc2Sc2ccccc21)OC1=Cc2cc(F)ccc2Sc2ccccc21` [XYF573b], the pIC50 under setting [1] is 7.00 to 10.00.
For `O=P(O)(OC1=Cc2c(F)cccc2Sc2ccccc21)OC1=Cc2c(F)cccc2Sc2ccccc21` [XYF573c], the pIC50 under setting [1] is 7.00 to 10.00.
With `O=P(O)(OC1=Cc2cccc(Cl)c2Sc2ccccc21)OC1=Cc2cccc(Cl)c2Sc2ccccc21` [XYF604], the pIC50 under setting [1] is 6.00 to 7.00.
On the same count and under the same terms, the same measure for `O=P(O)(OC1=Cc2cc(Cl)ccc2Sc2ccccc21)OC1=Cc2cc(Cl)ccc2Sc2ccccc21` [XYF604b]: 7.00 to 10.00.
On the same count and under the same terms, as for `COc1cccc2c1SC1=C(C=C2OP(=O)(O)OC2=CC3=C(SCC3)Sc3c(OC)cccc32)CCS1` [XYF608], the figure is 7.00 to 10.00; as for `CCc1cccc2c1Sc1cc(F)ccc1C=C2OP(=O)(O)OC1=Cc2ccc(F)cc2Sc2c(CC)cccc21` [XYF628], 5.00 to 6.00; as for `CCc1cccc2c1Sc1c(F)cccc1C=C2OP(=O)(O)OC1=Cc2cccc(F)c2Sc2c(CC)cccc21` [XYF628a], 7.00 to 10.00.
With `CCc1cccc2c1Sc1ccc(F)cc1C=C2OP(=O)(O)OC1=Cc2cc(F)ccc2Sc2c(CC)cccc21` [XYF628b], under setting [1], the pIC50 is 6.00 to 7.00.
In the case of `CCc1cccc2c1Sc1ccccc1C=C2OP(=O)(O)OC1=Cc2ccccc2Sc2c(CC)cccc21` [XYF628c], the pIC50 under setting [1] was 7.00 to 10.00.
The same measure, in the same setting: the same measure for `COc1cccc2c1Sc1cc(F)ccc1C=C2OP(=O)(O)OC1=Cc2ccc(F)cc2Sc2c(OC)cccc21` [XYF632]: 7.00 to 10.00; for `COc1cccc2c1Sc1c(F)cccc1C=C2OP(=O)(O)OC1=Cc2cccc(F)c2Sc2c(OC)cccc21` [XYF632a]: 7.00 to 10.00.
Regarding `COc1cccc2c1Sc1ccc(F)cc1C=C2OP(=O)(O)OC1=Cc2cc(F)ccc2Sc2c(OC)cccc21` [XYF632b], the pIC50 under setting [1] was 7.00 to 10.00.
In the case of `COc1cccc2c1Sc1cccc(F)c1C=C2OP(=O)(O)OC1=Cc2c(F)cccc2Sc2c(OC)cccc21` [XYF632c], under setting [1], the pIC50 is 7.00 to 10.00.
Regarding `COc1ccc2c(c1)Sc1c(OC)cccc1C(OP(=O)(O)OC1=Cc3ccc(OC)cc3Sc3c(OC)cccc31)=C2` [XYF656], the pIC50 under setting [1] is 7.00 to 10.00.
As for `COc1cccc2c1Sc1c(OC)cccc1C(OP(=O)(O)OC1=Cc3cccc(OC)c3Sc3c(OC)cccc31)=C2` [XYF656a], the pIC50 under setting [1] is 6.00 to 7.00.

The values above are taken from patent publication US11098071B2, “GPR84 receptor antagonist and use thereof” (SHANGHAI INSTITUTE OF MATERIA MEDICA, CHINESE ACADEMY OF …, priority 2017, dated 2021).
